Test results as given in patent US8299060B2, “Trans-4-[[(5S)-5-[[[3,5-bis(trifluoromethyl)phenyl]methyl] (2-methyl-2H-tetrazol-5-yl)amino]-2,3,4,5-tetrahydro-7,9-dimethyl-1H-1-benzazepin-1-yl]methyl]-cyclohexanecarboxylic acid” (Eli Lilly and Company, priority 2009, dated 2012).
Marks after values point to notes of the source that are not given here.

Key:
[1] = Chemical stability: acid stability in 0.1N HCl at 40° C.; assay type: physicochemical
Description: Table 6 below lists the chemical stability of BCCA free acid as well as that of selected Examples 31, 89, 153, and 175 disclosed in WO 06/002342, renumbered below as compounds 13, 14, 15, and 16, respectively. […] This increased acid stability for BCCA free acid is not taught and cannot be predicted considering WO 06/002342.
Sample preparations: 1) Compound Stock: 0.9 mg/mL in ACN; 2) 100 μL stock+700 μL ACN+1 mL media (0.1N HCl, 50 mM PO4, pH 8, and 0.3% H2O2); 3) Place vials in heated (40° C.) autosampler, inject at 4 hour intervals for 16 or 24 hours.
Column: Alltech Alltima Phenyl, 3 μm, 4.6×150 mm or Waters XTerra MS C18, 3.5 μm, 4.6×150 mm Column temperature: 50° C., Injection volume: 10 μL. Detection: UV @ 226, 254 or 266 nm (depending on compound) Flow rate: 1.5 mL/min. Mobile phase: 0.1% TFA in 50% water/50% ACN (may need to adjust % ACN to keep compound peak retention time ˜5 min.) final sample conc. 0.05 mg/mL; ACN content 44%.

[2] = IV and PO pharmacokinetics in male Sprague Dawley rats; assay type: in vivo; details: 3 mg/kg PO; for F % (AUC Extrap.) ± sd: 1 mg/kg IV; for Cmax / Tmax: rat, plasma
Description: This following is to determine the pharmacokinetic parameters, including oral bioavailability, following a single 1 mg/kg intravenous bolus or a 3 mg/kg oral dose administration of the compound to male Sprague Dawley rats (n=4) in a crossover study design. The intravenous vehicle is 20% solutol microemulsion/80% deionized water. The oral vehicle is povidone USP 10%/SLS 0.5%/QS deionized water. In the intravenous arm, blood samples are collected at 0.08, 0.25, 0.5, 1, 2, 5, 8, 12, and 24 hours post-dose. In the oral arm, blood samples are collected at 0, 0.25, 0.5, 1, 2, 5, 8, 12, and 24 hours post-dose. Plasma is obtained by centrifugation, placed on ice, and frozen until samples are shipped on dry ice to Bioanalytical Systems, Inc. (BASi; West Lafayette, Ind.) for bioanalytical analysis. Concentrations of BCCA are determined by LC/MS/MS and pharmacokinetic parameters are calculated using a validated software program (Watson, Version 7.1). Other vehicles can be used to evaluate the bioavailability of BCCA including: 1% w/v sodium carboxymethyl cellulose, 0.25% w/v polysorbate 80 (Tween 80) and 0.05% 0.05% Dow Corning Antifoam 1510-US in purified water or; 1% w/v sodium carboxymethyl cellulose, 0.5% w/v sodium laurate sulfate, and 0.05% 0.05% Dow Corning Antifoam 1510-US in purified water in purified water each used either with or without sonification to facilitate dissolution of the compounds.

[3] = Hygroscopicity and degradation on storage at ambient temperature; assay type: physicochemical; details: stored at ambient temperature
[4] = target: T1, human CETP (Homo sapiens, UniProt P11597); experiment: In vivo assay of CETP activity; design: species or system transgenic mice that express human CETP; details: 30 mpk oral dose, 79.5% corn oil, 20% oleic acid, 0.5% Lubrafil; CETP and Apo A1 heterozygote mice; 8 hr; read-out: % CETP Inhib 8 hr
T1 construct: plasma from the treated animals is used as the CETP source in the assay; tissue Taconic; host or cells: plasma of transgenic mice expressing human CETP (CETP and Apo A1 heterozygotes)
T1 sequence (P11597 18-493): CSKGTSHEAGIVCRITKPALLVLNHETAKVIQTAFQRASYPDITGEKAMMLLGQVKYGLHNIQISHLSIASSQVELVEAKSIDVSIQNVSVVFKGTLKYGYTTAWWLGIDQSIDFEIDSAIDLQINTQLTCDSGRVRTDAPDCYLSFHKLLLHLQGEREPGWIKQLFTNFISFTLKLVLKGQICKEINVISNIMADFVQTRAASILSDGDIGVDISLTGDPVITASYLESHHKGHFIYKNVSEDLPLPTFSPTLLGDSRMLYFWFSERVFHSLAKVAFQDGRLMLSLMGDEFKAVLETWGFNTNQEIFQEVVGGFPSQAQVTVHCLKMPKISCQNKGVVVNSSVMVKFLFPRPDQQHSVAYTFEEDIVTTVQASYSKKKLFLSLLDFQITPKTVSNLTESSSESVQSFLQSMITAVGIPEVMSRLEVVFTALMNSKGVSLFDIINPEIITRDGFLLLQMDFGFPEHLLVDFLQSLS
Source text: An in vitro Scintillation Proximity Assay (SPA) has been used to evaluate the ability of compounds of this invention to inhibit the transfer of radiolabeled cholesterol esters between HDL and LDL. This assay monitors the inhibition of the transfer of [^3H]cholesterol esters from HDL (Amersham) to biotinylated LDL (Amersham) by a CETP source. The CETP source for this assay can be produced by AV-12 cells that have been created to express human CETP. The radiolabeled cholesterol ester is transferred in a HEPES-NaCl based buffer, after thirty minutes incubation the reaction is stopped and the biotinylated LDL is bound to streptavidin/scintillant coated SPA beads (Amersham). The radioactive signal is measured in a Packard 96-well scintillation TopCounter with window settings fully open. A decrease in radioactive signal from the LDL relative to a standard indicates the ability of compounds to inhibit the activity of CETP.
Syrian Golden Hamsters, which express endogenous CETP, can be used to assess the activity of the compounds in vivo. […] The CETP activity can be determined by a method similar to that described above for the in vitro CETP activity assay, with the modification that plasma from the treated animals is used as the CETP source in the assay.

[5] = system: HDL cholesterol; experiment: In vivo assay of plasma lipids (HDL cholesterol elevation); design: species or system transgenic mice that express human CETP; details: 30 mpk oral dose, 79.5% corn oil, 20% oleic acid, 0.5% Lubrafil, CETP and Apo A1 heterozygote mice
Description: Syrian Golden Hamsters, which express endogenous CETP, can be used to assess the activity of the compounds in vivo. Test compounds are administered orally 30 mpk dose in a 79.5% corn oil, 20% oleic acid, 0.5% Lubrafil vehicle to a strain of transgenic mice that express human CETP (female or male CETP and Apo A1 heterozygote mice Taconic, Germantown, N.Y.). At various times after dosing, ranging from 4 h to 48 h, blood/plasma can be obtained. The CETP activity can be determined by a method similar to that described above for the in vitro CETP activity assay, with the modification that plasma from the treated animals is used as the CETP source in the assay.
Activity of compounds of this invention in vivo can be evaluated by comparing the level of elevation of HDL cholesterol relative to a control by a given amount of a compound in a CETP-containing animal species. The test compounds are administered as described above for the in vivo assay of CETP activity. […] The HDL cholesterol levels in the serum can be determined by known procedures using HDL-C plus reagents (Roche/Hitachi, Indianapolis, Ind.) with a clinical chemistry analyzer (Roche/Hitachi, Indianapolis, Ind.). Additional serum lipids can be analyzed by enzymatic methods. Lipids in the VLDL, LDL and HDL fractions are analyzed by enzymatic methods after precipitation or size exclusion chromatography. […]

Row | Compound | Acid Stability, percent remaining, 8 hrs [1] | Acid Stability, percent remaining, 24 hrs [1] | hygroscopicity [3] | also measured
1 | Cc1cc2c(c(C)c1C(F)(F)F)N(CC1CCC(CC(=O)O)CC1)CCC[C@@H]2N(Cc1cc(C(F)(F)F)cc(C(F)(F)F)c1)c1nnn(C)n1 (stereo partly drawn) [Compound 15, reference compound] | 100.4% | 99.1% | – | F % (AUC Extrap.) ± sd [2]: 8 ± 3%; Cmax [2]: 85 ± 43 ng/mL; Tmax [2]: 5 h
2 | Cc1cc2c(cc1C(F)(F)F)N(C1CCC(C(=O)O)CC1)CCC[C@@H]2N(Cc1cc(C(F)(F)F)cc(C(F)(F)F)c1)c1nnn(C)n1 (stereo partly drawn) [Compound 16] | 37.8% | – | – | Acid Stability, percent remaining after 16 hrs ([1]; 16 hrs (footnote *)): 13.4* Percent
3 | CC(C)(C)N.CC(C)O.Cc1cc(C)c2c(c1)[C@@H](N(Cc1cc(C(F)(F)F)cc(C(F)(F)F)c1)c1nnn(C)n1)CCCN2C[C@H]1CC[C@H](C(=O)O)CC1 (relative stereo) [Example 14, Trans-4-[[(5S)-5-[[[3,5-bis(trifluoromethyl)phenyl]methyl](2-methyl-2H-tetrazol-5-yl)amino]-2,3,4,5-tetrahydro-7,9-dimethyl-1H-1-benzazepin-1-yl]methyl]-cyclohexanecarboxylic acid tert-butylamine isopropyl alcohol (1:1:1) solvate] | – | – | non-hygroscopic | –
4 | Cc1cc(C)c2c(c1)[C@@H](N(Cc1cc(C(F)(F)F)cc(C(F)(F)F)c1)c1nnn(C)n1)CCCN2C[C@H]1CC[C@H](C(=O)O)CC1 [Ex 1, Trans-4-[[(5S)-5-[[[3,5-bis(trifluoromethyl)phenyl]methyl](2-methyl-2H-tetrazol-5-yl)amino]-2,3,4,5-tetrahydro-7,9-dimethyl-1H-1-benzazepin-1-yl]methyl]-cyclohexanecarboxylic acid] | 97.3% | 91.3% | non-hygroscopic | inhibition at 30 mg/kg [4]: 98.6%; % HDL cholesterol increase at 8 hr [5]: 129.7. %; F % (AUC Extrap.) ± sd [2]: 38 ± 4%; Cmax [2]: 208 ± 41 ng/mL; Tmax [2]: 3.5 ± 1.7 h
5 | Cc1cc2c(cc1C(F)(F)F)N(Cc1ccc(C(=O)O)cc1)CCC[C@@H]2N(Cc1cc(C(F)(F)F)cc(C(F)(F)F)c1)c1nnn(C)n1 [Compound 14, (S)-4-{5-[(3,5-Bis-trifluoromethyl-benzyl)-(2-methyl-2H-tetrazol-5-yl)-amino]-7-methyl-8-trifluoromethyl-2,3,4,5-tetrahydro-benzo[b]azepin-1-ylmethyl}-benzoic acid] | 52% | 13.4% | – | –
6 | Cc1cc(C)c2c(c1)[C@@H](N(Cc1cc(C(F)(F)F)cc(C(F)(F)F)c1)c1nnn(C)n1)CCCN2C[C@H]1CC[C@H](C(=O)O)CC1.O (relative stereo) [Example 5, Trans-4-[[(5S)-5-[[[3,5-bis(trifluoromethyl)phenyl]methyl](2-methyl-2H-tetrazol-5-yl)amino]-2,3,4,5-tetrahydro-7,9-dimethyl-1H-1-benzazepin-1-yl]methyl]-cyclohexanecarboxylic acid hydrate in crystalline form] | – | – | non-hygroscopic | –
7 | Cc1cc(C)c2c(c1)[C@@H](N(Cc1cc(C(F)(F)F)cc(C(F)(F)F)c1)c1nnn(C)n1)CCCN2C[C@H]1CC[C@H](C(=O)O)CC1.O (relative stereo) [Example 3, Trans-4-[[(5S)-5-[[[3,5-bis(trifluoromethyl)phenyl]methyl](2-methyl-2H-tetrazol-5-yl)amino]-2,3,4,5-tetrahydro-7,9-dimethyl-1H-1-benzazepin-1-yl]methyl]-cyclohexanecarboxylic acid•Hydrate] | – | – | – | degradation on storage [3]: minor or very little degradation
8 | [O-][n+]1ccccc1[S-].[O-][n+]1ccccc1[S-].[Zn+2] [zinc salt] | – | – | essentially non-hygroscopic | –
9 | Cc1cc2c(cc1C(F)(F)F)N(C[C@H]1CC[C@H](CC(=O)O)CC1)CCC[C@@H]2N(Cc1cc(C(F)(F)F)cc(C(F)(F)F)c1)c1nnn(C)n1 [Compound 13, (4-{5-[(3,5-Bis-trifluoromethyl-benzyl)-(2-methyl-2H-tetrazol-5-yl)-amino]-7-methyl-8-trifluoromethyl-2,3,4,5-tetrahydro-benzo[b]azepin-1-ylmethyl}-cyclohexyl)-acetic acid] | 14.5% | 0% | – | –
10 | CC(C)(C)N.CCO.Cc1cc(C)c2c(c1)[C@@H](N(Cc1cc(C(F)(F)F)cc(C(F)(F)F)c1)c1nnn(C)n1)CCCN2C[C@H]1CC[C@H](C(=O)O)CC1.Cc1cc(C)c2c(c1)[C@@H](N(Cc1cc(C(F)(F)F)cc(C(F)(F)F)c1)c1nnn(C)n1)CCCN2C[C@H]1CC[C@H](C(=O)O)CC1 (relative stereo) [Example 15, Trans-4-[[(5S)-5-[[[3,5-bis(trifluoromethyl)phenyl]methyl](2-methyl-2H-tetrazol-5-yl)amino]-2,3,4,5-tetrahydro-7,9-dimethyl-1H-1-benzazepin-1-yl]methyl]-cyclohexanecarboxylic acid hemi tert-butylamine salt hemi ethanol (2:1:1) solvate in crystalline form] | – | – | non-hygroscopic | –
